Molecules are shown by their SMILES.

This assay concerns mouse-derived macrophage-like cell line RAW264.7. Kind of assay: Evaluation of NO production amount by Griess method. As to conditions: general statement of effect; based on suppression of NO production by M1 macrophage. The format is cell-based. On the procedure:
The mouse-derived macrophage-like cell line RAW264.7 was seeded in a 48 well plate 1×10^5 cells per well. After culture for 5 hr, Escherichia coli-derived lipopolysaccharide (LPS) was added to 100 ng/mL over 24 hr to activate RAW264.7 cells. Simultaneously with LPS, various compounds (No. 1-No. 17, LA, ALA) were added at 10 μM, and the concentration of […] (NO2^−), which is an oxide of nitric oxide (NO) produced by macrophage activation, in the culture medium was measured. The amount of NO2 in the culture medium was quantified by the Griess method and in reference to Shan Lin et al., Molecular Nutrition and Food Research 57 (2013) p 1135-1144, “Auraptene suppresses inflammatory responses in activated RAW264 macrophages by inhibiting p38 mitogen-activated protein kinase activation”, the section of Material and methods Measurements of TNF-α, MCP-1, and NO concentrations. The quantification was actually performed as follows. RAW264.7 culture medium treated with LPS and various compounds for 24 hr was recovered. 0.2% N-(1-naphthyl) ethylenediamine and 2% Sulfanilamide/10% H3PO4 were blended at 1:1 immediately before reaction to give a Griess reagent, RAW264.7 culture medium and the Griess reagent were mixed at 1:1 and reacted at room temperature for 10 min. After completion of the reaction, absorbance at 550 nm was measured. NaNO2 was used as the NO2^− standard product, and the NO2^− concentration in the culture medium was calculated. The concentration of the sample was adjusted with ethanol. Ethanol was used as a negative control, and BAY11-7082 (5 μM), which is a IκBα phosphorylation inhibitor, was used as a positive control.
On the technique in general: Griess reagent forms a coloured azo dye with nitrite.
As to `CCCCC/C=C\CC(O)CCCCCCCCC(=O)O` (stereo not drawn) [No. 4, 10-hydroxy-cis-12-octadecenoic acid], the anti-inflammatory action result is on record as “have an anti-inflammatory action”.

For the molecule `CCCCC/C=C\CC(=O)CCCCCCCCC(=O)O` [No. 6, 10-oxo-cis-12-octadecenoic acid], the anti-inflammatory action result was “have an anti-inflammatory action”.

Consider `CCCCCC(O)CC/C=C\CCCCCCCC(=O)O` (stereo not drawn) [No. 14, 13-hydroxy-cis-9-octadecenoic acid], for which the anti-inflammatory action result is “have an anti-inflammatory action”.

For `CCCCCC(=O)CC/C=C\CCCCCCCC(=O)O` [No. 15, 13-oxo-cis-9-octadecenoic acid], the anti-inflammatory action result was “have an anti-inflammatory action”.

The values are drawn from US12697318B2, “Anti-inflammatory agent containing rare fatty acid” (Noster Inc., priority 2014, dated 2026).
